From BindingDB's records for patent US10913744 (Dana-Farber Cancer Institute, 2021)

Columns and labels:
[1] = target: T1, Leucine-rich repeat serine/threonine-protein kinase 2 [1326-2527,G2019S] (Homo sapiens, UniProt Q5S007, G2019S); assay: Enzyme Assay
T1 construct: 1326-2527
Procedure: (§1) Samples were washed extensively and the incorporation of [γ-32P]ATP into Nictide was quantified by Cerenkov counting. IC50 values were calculated with GraphPad Prism using non-linear regression analysis.

[2] = target: T2, Leucine-rich repeat serine/threonine-protein kinase 2 [1326-2527] (Homo sapiens, UniProt Q5S007); assay: Enzyme Assay
T2 construct: 1326-2527
T2 sequence (Q5S007 whole entry): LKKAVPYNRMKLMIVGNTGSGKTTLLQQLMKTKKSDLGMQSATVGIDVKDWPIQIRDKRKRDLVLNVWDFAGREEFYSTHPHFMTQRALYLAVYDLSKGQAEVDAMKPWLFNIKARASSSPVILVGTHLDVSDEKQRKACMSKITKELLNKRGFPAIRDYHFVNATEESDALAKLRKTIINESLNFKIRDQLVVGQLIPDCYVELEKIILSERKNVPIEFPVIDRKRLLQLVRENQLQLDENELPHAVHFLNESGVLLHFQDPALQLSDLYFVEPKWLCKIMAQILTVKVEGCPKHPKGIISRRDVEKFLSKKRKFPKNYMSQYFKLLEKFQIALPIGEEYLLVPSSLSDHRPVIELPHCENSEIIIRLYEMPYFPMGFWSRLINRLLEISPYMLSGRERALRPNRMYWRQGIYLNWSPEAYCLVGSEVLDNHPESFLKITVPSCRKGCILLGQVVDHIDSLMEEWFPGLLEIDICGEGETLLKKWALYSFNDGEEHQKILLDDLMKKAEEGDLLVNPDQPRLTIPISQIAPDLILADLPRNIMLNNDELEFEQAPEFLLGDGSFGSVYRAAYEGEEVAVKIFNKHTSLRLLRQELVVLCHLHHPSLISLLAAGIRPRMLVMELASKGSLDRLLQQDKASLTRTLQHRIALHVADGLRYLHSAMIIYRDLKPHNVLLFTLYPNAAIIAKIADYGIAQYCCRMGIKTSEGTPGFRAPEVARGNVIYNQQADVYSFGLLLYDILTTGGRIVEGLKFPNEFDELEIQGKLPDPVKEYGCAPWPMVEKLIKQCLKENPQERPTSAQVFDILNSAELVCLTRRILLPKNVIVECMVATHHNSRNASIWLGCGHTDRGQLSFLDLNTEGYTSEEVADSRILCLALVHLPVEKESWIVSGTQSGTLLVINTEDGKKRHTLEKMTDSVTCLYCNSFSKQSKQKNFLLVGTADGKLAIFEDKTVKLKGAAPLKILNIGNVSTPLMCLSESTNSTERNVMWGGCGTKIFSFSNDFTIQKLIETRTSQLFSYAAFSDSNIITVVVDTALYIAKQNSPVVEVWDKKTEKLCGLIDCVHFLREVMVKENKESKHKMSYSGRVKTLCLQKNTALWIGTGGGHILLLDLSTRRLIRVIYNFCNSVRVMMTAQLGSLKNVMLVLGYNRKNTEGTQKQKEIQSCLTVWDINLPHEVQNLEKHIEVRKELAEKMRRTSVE
Procedure: as §1

T1 sequence (Q5S007 1326-2527 G2019S): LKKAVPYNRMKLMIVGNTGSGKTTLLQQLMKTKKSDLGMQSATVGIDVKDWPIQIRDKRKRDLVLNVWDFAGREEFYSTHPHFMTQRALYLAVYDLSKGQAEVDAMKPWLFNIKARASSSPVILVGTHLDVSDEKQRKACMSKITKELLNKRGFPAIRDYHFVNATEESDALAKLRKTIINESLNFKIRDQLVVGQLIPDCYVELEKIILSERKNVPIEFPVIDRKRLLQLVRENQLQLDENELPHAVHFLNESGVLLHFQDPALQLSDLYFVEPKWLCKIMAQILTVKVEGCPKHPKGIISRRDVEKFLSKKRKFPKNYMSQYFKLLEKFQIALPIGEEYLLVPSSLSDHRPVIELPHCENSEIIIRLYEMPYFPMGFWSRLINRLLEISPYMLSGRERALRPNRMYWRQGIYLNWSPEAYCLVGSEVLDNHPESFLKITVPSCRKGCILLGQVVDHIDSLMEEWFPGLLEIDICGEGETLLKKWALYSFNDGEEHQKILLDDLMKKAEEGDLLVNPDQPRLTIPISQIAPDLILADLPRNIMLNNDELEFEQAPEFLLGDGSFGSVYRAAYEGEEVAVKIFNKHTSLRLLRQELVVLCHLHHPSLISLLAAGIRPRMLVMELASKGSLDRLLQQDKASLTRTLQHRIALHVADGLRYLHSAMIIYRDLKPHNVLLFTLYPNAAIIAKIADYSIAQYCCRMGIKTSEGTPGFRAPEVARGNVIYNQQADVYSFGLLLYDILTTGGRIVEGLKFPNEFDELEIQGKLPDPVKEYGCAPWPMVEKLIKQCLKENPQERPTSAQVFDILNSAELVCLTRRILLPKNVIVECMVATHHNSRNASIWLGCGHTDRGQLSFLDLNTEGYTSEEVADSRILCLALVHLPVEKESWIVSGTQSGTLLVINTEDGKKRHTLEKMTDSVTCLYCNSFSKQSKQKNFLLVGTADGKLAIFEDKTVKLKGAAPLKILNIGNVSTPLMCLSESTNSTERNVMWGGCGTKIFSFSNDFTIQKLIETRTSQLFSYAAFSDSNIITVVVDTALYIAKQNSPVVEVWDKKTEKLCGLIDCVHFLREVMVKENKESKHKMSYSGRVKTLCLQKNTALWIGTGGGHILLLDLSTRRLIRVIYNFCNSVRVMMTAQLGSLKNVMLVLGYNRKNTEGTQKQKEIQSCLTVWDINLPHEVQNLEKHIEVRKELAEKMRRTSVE

Compound: CNc1nc(Nc2ccc(C(=O)N3CCOCC3)cc2OC)nc2[nH]ccc12 [US10913744, Compound 8]
- IC50 [1]: 5.1 nM
- IC50 [2]: 2.6 nM
